Laboratory results taken from patent US8962633B2, “Methods of treatment and prevention of metabolic bone diseases and disorders” (Thomas Jefferson University, priority 2007, dated 2015).

Columns and labels:
[1] = system: MLO-A5 osteoblastic cells; assay: Alizarin Red staining (mineralization) of MLO-A5 cells; format: cell-based, mice; conditions: 5 μM LysoPC, 7 days, vs non-treated control cells
Protocol: (§1) Alkaline Phosphatase and Alizarin Red Staining. Alizarin Red and Alkaline Phosphatase Staining are bone marker proteins indicating the degree of mineralization and intensity of osteblast differentiation, respectively. MLO-A5 osteoblastic cells (isolated from 14-day-old osteocalcin promoter-driven T-antigen transgenic mice, J Bone Miner Res 12:2014-2023, 1997) were cultured on Collagen1 coated plates at density 15000 cells/well in 12-well TC plates. After 24 hours, the cells were treated w/10 mM β-GP and LysoPC at 5 μM concentration for 3 and 7 days. Treatment was repeated every other day. At each time point alizarin red and alkaline phosphatase staining was performed. Alkaline phosphatase Detection Kit (Chemicon, Intl., Temecula, Calif., SCR004) was used for detection and performed as per manufactures instructions. To visualize mineralization the cells were washed once with a 2% Alizarin Red S solution for 5-10 min. at room temperature followed by one wash with water, two washes with PBS and fixation with paraformaldehyde. The results were then imaged with a digital cooled CCD camera.

[2] = system: MLO-A5 osteoblastic cells; assay: Alkaline phosphatase staining (osteoblast differentiation) of MLO-A5 cells; format: cell-based, mice; conditions: vs control
Protocol: as §1

MLO-A5 cells = assay: CyQUANT cell proliferation assay in MLO-A5 cells; format: cell-based, mice; conditions: 5 μM LysoPC, 18 hours, vs non-treated cells
Protocol: Cell Proliferation. MLO-A5 cells were plated in 48-well TC dishes at a density of 5,000 cells/well and allowed to attach (5-6 hrs.). The cells were treated with 5 uM of Lyso PC for 18 hrs followed by analysis with the CyQUANT Cell Proliferation Assay Kit (Molecular Probes) following manufacturers instructions to measure MLO-A5 proliferation.

[3] = system: diabetic/hypercholesterolemic pig model (DM/HC); assay: MicroCT analysis of trabecular bone (medial femoral condyle) in the DM/HC pig model; format: in vivo; conditions: for SMI (structural model index) / Tb.Th (trabecular thickness): 10 mg/kg/day
Protocol: Animal model: A diabetic/diabetic hypercholestrolemic pig model (DM/HC) was developed that mimics human-like atherosclerosis. Domestic Yorkshire boars weighing 25-30 kg and aged ˜4 months were castrated and made diabetic with a single intravenous injection of 125 mg/kg of streptozotocin (Sicor Pharmaceuticals, Irvine, Calif.). […] The animals were sacrificed at 6-month after the randomization. The animal protocol has been approved by the Institutional Animal Care and Use Committee of University of Pennsylvania. Daily dosing began on Day 29, at which time each test animal was given a daily dose of 10 mg/kg SB-480848 (given as bolus equivalent in dog food). Animals were NPO from midnight the night before. Animals were euthanized on Day 196 and tissues harvested immediately. Tissue sampling: The right knee joint was removed and dissected. The femoral bone was split in half in parallel to the long axis of the bone. A piece of bone including both the articular surface and growth plate region (˜15-20 mm) was sliced off from the front and parallel to the femoral shaft (FIG. 1). The tissues were fixed in 4% paraformaldehyde and scanned within one week in a μCT scanner (μCT-40, Scanco Corp.) with a voxel resolution of 20 μm. MicroCT Analysis—Micro CT analysis generates 3 dimensional data including bone density and indices of micro-architecture. From the central region, i.e., between the articular surface (top) and the growth plate (bottom), 250 slices (˜[…]) were analyzed. To avoid artifact, the measurements were contoured away from the regions directly below the articular surface and the cutting edges. Paraformaldehyde fixed tissues (2×2 cm) were analyzed using microCT 40 (Scanco Medical, Bassersdorf, Switzerland) and a 3D reconstruction of the images slices was generated. The tissues were scanned at a medium resolution with slice thickness and slice increments of 20 μm. […] Scanning was performed at an energy setting of 70000 (V) and an intensity of 114 (μA) with an integration time of 200 ms. All values for tissue volume (mm3), bone volume (mm3), bone volume/tissue volume, and mean/density (mg HA/ccm) were also calculated and recorded. […] The image density was measured with the Distance3D tool of the μCT Evaluation Program V5.0.

[4] = Body weight and general observation of DM/HC pigs during the study; format: in vivo, pig
Protocol: (§2) Animal model: A diabetic/diabetic hypercholestrolemic pig model (DM/HC) was developed that mimics human-like atherosclerosis. Domestic Yorkshire boars weighing 25-30 kg and aged ˜4 months were castrated and made diabetic with a single intravenous injection of 125 mg/kg of streptozotocin (Sicor Pharmaceuticals, Irvine, Calif.). After stabilized for 1-2 weeks, the animals with elevated levels of plasma glucose (>150 mg/dl) were fed with atherogenic (high-fat) diet as shown in Table 1 (Animal Specialties, Quakertown, Pa.) to achieve a cholesterol level of approximately 250-800 mg/dl.
(§3) At one month after stabilization of choleresterol at 250-800 mg/dl, the animals were randomized into two experimental groups, DM/HC (hyperglycemia and hypercholesterolemia) group with no treatment and treatment group (10 mg/kg/day of SB-480848, also referred to as 1-(N-(2-(diethylamino)ethyl)-N-(4-(4-trifluoromethylphenyl)benzyl)-aminocarbonylmethyl)-2-(4-fluorobenzyl)thio-5,6-trimethylenepyrimidin-4-one). The animals were sacrificed at 6-month after the randomization. The animal protocol has been approved by the Institutional Animal Care and Use Committee of University of Pennsylvania.
(§4) Daily dosing began on Day 29, at which time each test animal was given a daily dose of 10 mg/kg SB-480848 (given as bolus equivalent in dog food). Animals were NPO from midnight the night before. […]

[5] = system: diabetic/hypercholesterolemic pig model (DM/HC); assay: Histochemical staining (H&E-AB) of bone marrow in DM/HC pigs; format: in vivo; conditions: treated vs non-treated DM/HC pigs
Protocol: as §2, §3, §4

[6] = system: diabetic/hypercholesterolemic pig model (DM/HC); assay: TUNEL assay of trabecular bone in DM/HC pigs; format: in vivo; conditions: treated vs non-treated DM/HC pigs, n=4 per group
Protocol: as §2, §3
Daily dosing began on Day 29, at which time each test animal was given a daily dose of 10 mg/kg SB-480848 (given as bolus equivalent in dog food). […]
TUNEL Assay. Apoptosis was measured by the TUNEL assay. […]

[7] = DM/HC pigs, 10 mg/kg/day SB-480848, sacrificed Day 196
[8] = DM/HC pigs, 10 mg/kg/day SB-480848, sacrificed Day 196, listed as Lp-PLA2 inhibitor

Row | Compound | mineralization (Alizarin Red staining) [1] | alkaline phosphatase staining ([2]; 5 μM LysoPC, 7 day treatment) | alkaline phosphatase staining ([2]; at least 5 μM LysoPC (5 and 20 μM), 7 days) | proliferation (MLO-A5 cells) | osteoporotic changes (BV/TV, BS/BV) ([3]; DM/HC pigs treated with inhibitor, in words) | BS/BV (bone surface over bone volume) [3, 7] | BV/TV (bone volume over total volume) [3, 7] | Conn-Dens (connectivity density) [3, 7] | Tb.N (trabecular number) [3, 7] | Tb.Sp (trabecular separation) [3, 7] | SMI (structural model index) [3, 7] | Tb.Th (trabecular thickness) [3, 7] | SMI (structural model index) [3, 8] | Tb.Th (trabecular thickness) [3, 8] | changes in Tb.Sp, TbN and ConnD ([3]; control vs DM/HC vs treated DM/HC animals, in words) | weight ([4]; treated DM/HC pigs at end of study, baseline 26.9 kg, control animals 50.9 kg) | responsiveness and activity of the animals ([4]; treated vs control DM/HC pigs, observation) | trabecular bone marrow morphology / homeostasis ([5]; H&E-AB staining, trabecular bone areas) | bone marrow remote from trabecular bone [5] | death of osteocytes and osteoblasts (TUNEL positive cells) [6]
1 | lyso-phosphatidylcholine [LysoPC] | decreased mineralization | decreased alkaline phosphatase staining | reduced alkaline phosphatase staining | reduced proliferation | – | – | – | – | – | – | – | – | – | – | – | – | – | – | – | –
2 | CCN(CC)CCN(Cc1ccc(-c2ccc(C(F)(F)F)cc2)cc1)C(=O)Cn1c(SCc2ccc(F)cc2)nc(=O)c2c1CCC2 [SB480848, 1-(N-(2-(diethylamino)ethyl)-N-(4-(4-trifluoromethylphenyl)benzyl)-aminocarbonylmethyl)-2-(4-fluorobenzyl)thio-5,6-trimethylenepyrimidin-4-one] | – | – | – | – | no osteoporotic changes | 24.40 ± 0.51 | 0.25 ± 0.01 | 35.69 ± 1.22 | 2.78 ± 0.06 | 0.33 ± 0.007 | 0.65 ± 0.10 | 0.10 ± 0.002 | degenerative changes were minimized | reduced Tb.Th thickness was prevented | no significant changes | 62.5 kg | more responsive to external stimuli | preserved bone marrow homeostasis | prevented DM/HC-induced bone marrow abnormalities | reduced death of osteocytes and osteoblasts
